In series [1] the test system is acetolactate synthase (ALS), resistant enzyme from R-XANST. As to the kind of experiment: ALS enzymatic evaluation, resistant enzyme isolated from R-XANST. The following applies: ratio I50 resistant / I50 sensitive enzyme. It counts as biochemical. As to the method: (§1) Cocklebur is grown in a greenhouse. Five grams of fresh green leaf tissue are ground to a powder in a mortar at the temperature of liquid nitrogen. The powder is extracted with 100 ml of buffer containing 50 mM N-[2-hydroxyethyl]piperazine-N'-[3-propanesulfonic acid], (EPPS); pH 7.2; 5 mM MgCl2; 2 mM EDTA; 1 mM valine; 1 mM leucine; 10% glycerol; 10 mM pyruvate; 5 mM Dithiothreitol; 1% polyvinyl polypyrrolidone (PVPP) and […] flavin adenine dinucleotide and filtered through cheesecloth. The filtrate was centrifuged at 15,000×g for 15 min.
(§2) The procedures used for the isolation of ALS from cocklebur are similar to those known in the art. The supernatant resulting from centrifugation of the crude extract is brought to 40% ammonium sulfate. The ammonium sulfate pellet is not frozen and is resuspended in standard buffer used for I50 determinations and then gel-filtered through the same buffer. This preparation is used for determinations of Km for pyruvate and I50. The Km is equal to the substrate concentration at which the initial reaction velocity is half maximal and also referred to as the Michaelis-Menten constant. The Km is determined using Lineweaver-Burke double reciporcial plots. I50 is the concentration in which 50% inhibition is observed and is determined from linear regression analysis of the linear portion of the dose/response curve.
(§3) The I50 values by various ALS inhibitors are determined on both sensitive enzymes isolated from S-XANST and resistant enzymes isolated from R-XANST and are reported in Table 1.

Series [2] deals with T1, acetolactate synthase (ALS), resistant enzyme from R-XANST (Xanthium sp., UniProt Q41716).
T1 construct: mature chloroplast form
T1 sequence (Q41716 78-648): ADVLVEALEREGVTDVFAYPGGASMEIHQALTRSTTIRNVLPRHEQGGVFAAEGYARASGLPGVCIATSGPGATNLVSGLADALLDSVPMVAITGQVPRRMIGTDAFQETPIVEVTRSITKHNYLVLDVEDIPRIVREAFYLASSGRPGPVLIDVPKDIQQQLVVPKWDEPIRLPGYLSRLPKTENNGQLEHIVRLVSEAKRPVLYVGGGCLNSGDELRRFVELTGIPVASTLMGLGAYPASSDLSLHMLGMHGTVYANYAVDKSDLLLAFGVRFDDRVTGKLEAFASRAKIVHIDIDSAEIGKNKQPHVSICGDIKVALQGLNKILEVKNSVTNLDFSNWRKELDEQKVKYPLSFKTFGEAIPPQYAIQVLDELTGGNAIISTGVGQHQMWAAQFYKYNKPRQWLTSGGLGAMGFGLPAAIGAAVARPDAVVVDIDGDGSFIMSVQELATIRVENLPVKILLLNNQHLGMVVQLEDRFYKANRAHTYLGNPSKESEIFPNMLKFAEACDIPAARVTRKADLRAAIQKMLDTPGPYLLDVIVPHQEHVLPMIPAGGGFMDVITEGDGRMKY
Described as above. The class given is biochemical. The following applies: ALS from R-XANST leaves, 40% ammonium sulfate fraction; read-out: I50 (M) Resistant. As to the method: as §1, §2, §3

Series [3] relates to R-XANST (resistant cocklebur biotype). Briefly: Herbicidal evaluation, post-emergence spray on resistant cocklebur. The class given is in vivo, cocklebur (Xanthium sp.). As to the method:
(§4) Seeds of S-XANST and R-XANST are planted one per pot in soil mix. Pots are placed on a heating mat and the soil temperature increased from about 65° F. to about 90° F. At the 2-3 leaf stage, plants are treated with test herbicides using a linear track laboratory sprayer calibrated to deliver 42.5 GPA. Plants are watered by subirrigation after herbicide application. Observations of percent control are made 21 days after herbicide application. The test ALS inhibitor herbicides are listed below including their chemical class:
(§5) The effect of the various ALS inhibitors against R-XANST and S-XANST is depicted in FIG. 5. The results are reported as % control wherein 100% injury is equal to complete control as determined by growth. All treatments are replicated four times in a randomized complete block design.
(§6) Additionally tests are preformed at much higher herbicide rates to determine the extent of resistance. […] Glean tested at 1.56 lb ai/A, a rate of 100 times field use, provided 88% injury to R-XANST. Pursuit provides 90% injury to R-XANST when used at 100 times the normal field rate, (6.25 lb ai/A).

In series [4] the test system is S-XANST (susceptible cocklebur). As to the kind of experiment: Herbicidal evaluation, post-emergence spray on susceptible cocklebur. It counts as in vivo, cocklebur (Xanthium sp.). As to the method: as §4, §5, §6
In series [5] the target is T2, acetolactate synthase (ALS), sensitive enzyme from S-XANST (Xanthium sp., UniProt Q41717).
T2 construct: mature chloroplast form
T2 sequence (Q41717 78-648): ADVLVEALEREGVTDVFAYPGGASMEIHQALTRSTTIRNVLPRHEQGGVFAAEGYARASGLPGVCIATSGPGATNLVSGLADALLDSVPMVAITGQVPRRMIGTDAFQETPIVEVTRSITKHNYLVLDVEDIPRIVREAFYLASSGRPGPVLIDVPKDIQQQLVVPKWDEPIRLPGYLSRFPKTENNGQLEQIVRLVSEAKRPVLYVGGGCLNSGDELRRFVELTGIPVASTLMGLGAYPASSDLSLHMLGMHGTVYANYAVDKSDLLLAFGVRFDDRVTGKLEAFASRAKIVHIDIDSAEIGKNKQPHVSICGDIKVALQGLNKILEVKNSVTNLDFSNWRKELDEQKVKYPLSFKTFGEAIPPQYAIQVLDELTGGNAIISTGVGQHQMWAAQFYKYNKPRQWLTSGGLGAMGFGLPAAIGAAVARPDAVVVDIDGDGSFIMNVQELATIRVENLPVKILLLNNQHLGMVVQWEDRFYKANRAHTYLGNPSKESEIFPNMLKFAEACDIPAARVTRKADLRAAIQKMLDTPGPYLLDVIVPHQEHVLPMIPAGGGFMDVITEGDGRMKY
As to the kind of experiment: ALS enzymatic evaluation, sensitive enzyme isolated from S-XANST. The class given is biochemical, cocklebur (Xanthium sp.). The following applies: ALS from S-XANST leaves, 40% ammonium sulfate fraction; read-out: I50 (M) Sensitive. How it is done: as §1
as §2, with “I50 is the concentration in which 50% inhibition is observed and is determined from linear regression analysis of the linear portion of the dose/response curve.” left out
as §3

Substrate in series [6]: CC(=O)C(=O)O
As to the kind of experiment: ALS enzymatic evaluation, resistant enzyme isolated from R-XANST. It counts as biochemical. The following applies: other: R-XANST enzyme; Lineweaver-Burke plots; pH 7.2. How it is done: as §1
as §2, with “I50 is the concentration in which 50% inhibition is observed and is determined from linear regression analysis of the linear portion of the dose/response curve.” left out
as §3

Counter-ions that a name gives are not always drawn.

Broadly, the Km is the concentration of substrate that gives half-maximal velocity.

In the case of `Cc1ccn2nc(S(=O)(=O)Nc3c(F)cccc3F)nc2n1` [Broadstrike], the “Fold-resistance (R/S)” value in series [1] was 10,000. Besides, the IC50 in series [2] stood at 0.0006 M. The “injury on R-XANST” value in series [3] (6 lb ai/A) was 25%. Further, in series [4] (0.01 lb ai/A), the “injury to S-XANST” value is recorded as “greater than 95%”.

On to `CCc1cnc(C2=NC(C)(C(C)C)C(=O)N2)c(C(=O)O)c1` (single isomer, unassigned; (+)) [Imazethapyr, (+)-2-[4,5-dihydro-4-methyl-4-(1-methylethyl)-5-oxo-1H-imidazole-2-yl]-5-ethyl-3-pyridinecarboxylic acid], for which the “Fold-resistance (R/S)” value in series [1] was 100. In addition, in series [2], the IC50 was found to be 0.0001 M. In addition, the “injury to R-XANST” value in series [3] (100 times the normal field rate, 6.25 lb ai/A) turned out to be 90%.

`CC(C)C[C@H](N)C(=O)O` [Leucine]: the “Fold-resistance (R/S)” value in series [1] amounted to 1. Further, the IC50 in series [2] amounted to 0.001 M.

On to `COc1cc(OC)nc(C(=O)c2c(Cl)ccc(Cl)c2C(=O)O)n1` [Di-Cl benzoate], for which the “Fold-resistance (R/S)” value in series [1] is given as 2,200. For the same molecule, in series [2], the IC50 worked out at 0.0006 M.

As to `CC(C)C1(C)N=C(c2nc3ccccc3cc2C(=O)O)NC1=O` (stereo not drawn) [Imazaquin, 2-[4,5-dihydro-4-methyl-4-(1-methylethyl)-5-oxo-1H-imidazole-2-yl]-3-quinolinecarboxylic acid], the “Fold-resistance (R/S)” value in series [1] was 250. The IC50 in series [2] was found to be 0.0001 M.

Consider Picolinate, for which the “Fold-resistance (R/S)” value in series [1] was 1,100. Moreover, the values for the IC50 in series [2] and in series [5] were 0.001 M and 9e-08 M, respectively.

With `COc1nc(C)nc(NC(=O)NS(=O)(=O)c2ccccc2Cl)n1` [Chlorsulfurson, 2-chloro-N-[[CH-methoxy-6-methyl-1,3,5-triazin-2-yl-amino]carbonyl]benzenesulfonamide], the “Fold-resistance (R/S)” value in series [1] was 6,250. Also, the IC50 in series [2] was determined as 5e-05 M. Further, the “injury to R-XANST” value in series [3] (1.56 lb ai/A, 100 times field use) was determined as 88%.

As for `COc1cc(OC)nc(Sc2cccc(Cl)c2C(=O)O)n1` [Staple], the “injury to R-XANST” value in series [3] (highest test rate, 9.0 lb ai/A) is on record as not above 55%. Also, in series [4] (0.03 lb ai/A, 21 days after application), the “injury to S-XANST” value is listed as “greater than 90%”.

`COc1cc(OC)nc(C(=O)c2c(Cl)ccc(Cl)c2C(=O)O)n1` [SAN 2, 3-6-Dichloro-2-[(4,6-dimethoxy-2-pyrimidinyl)carbonyl]benzoic acid, isopropyl ammonium salt]: the “injury to R-XANST” value in series [3] (30 lb ai/A, 21 days after application) is given as not above 50%. For the same molecule, in series [4] (0.1 lb ai/A, 2-3 leaf stage, 21 days after application), the “injury to S-XANST” value is given as “greater than 95%”.

B1: acetolactate synthase (ALS), resistant enzyme from R-XANST (Xanthium sp.) (protein)
chain: ADVLVEALEREGVTDVFAYPGGASMEIHQALTRSTTIRNVLPRHEQGGVFAAEGYARASGLPGVCIATSGPGATNLVSGLADALLDSVPMVAITGQVPRRMIGTDAFQETPIVEVTRSITKHNYLVLDVEDIPRIVREAFYLASSGRPGPVLIDVPKDIQQQLVVPKWDEPIRLPGYLSRLPKTENNGQLEHIVRLVSEAKRPVLYVGGGCLNSGDELRRFVELTGIPVASTLMGLGAYPASSDLSLHMLGMHGTVYANYAVDKSDLLLAFGVRFDDRVTGKLEAFASRAKIVHIDIDSAEIGKNKQPHVSICGDIKVALQGLNKILEVKNSVTNLDFSNWRKELDEQKVKYPLSFKTFGEAIPPQYAIQVLDELTGGNAIISTGVGQHQMWAAQFYKYNKPRQWLTSGGLGAMGFGLPAAIGAAVARPDAVVVDIDGDGSFIMSVQELATIRVENLPVKILLLNNQHLGMVVQLEDRFYKANRAHTYLGNPSKESEIFPNMLKFAEACDIPAARVTRKADLRAAIQKMLDTPGPYLLDVIVPHQEHVLPMIPAGGGFMDVITEGDGRMKY
notes: mature chloroplast form
With B1, the Michaelis constant (Km) in series [6] was found to be 6 mM.

For the origin of these results see patent US5633437A, “Gene exhibiting resistance to acetolactate synthase inhibitor herbicides” (Sandoz Ltd., priority 1994, dated 1997).
